Source: the supplement of paper PMC10307832

How the values were obtained:
Test in all cases: relative viability (nuclei count vs DMSO), 5 days (fraction); higher = more cells survive
TGX 221 + Linsitinib = compound: CC1=CN2C(=O)C=C(N=C2C(=C1)C(C)NC3=CC=CC=C3)N4CCOCC4 [TGX 221] + C[C@]1(O)C[C@@H](c2nc(-c3ccc4ccc(-c5ccccc5)nc4c3)c3c(N)nccn32)C1 [Linsitinib] (partner 1 µM)
Method in brief: (§1)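 The day after seeding in 1536-well plates, lung cancer cell lines were treated by pin tool with a single drug, or with a fixed anchor-drug dose together with five library-drug doses (not always all listed) in √10 steps. After 5 days, a combined fix-and-stain solution (final 0.05% Triton X-100, 1% formaldehyde, 1 ug/ml Hoechst) was added. Nuclei counted on 4× images gave relative viability as treated counts over vehicle counts, reported as the median of duplicate plates.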

[1] = compound: O=C(CCCCCCNC(=O)c1cnc(N(c2ccccc2)c2ccccc2)nc1)NO [Ricolinostat] + Nc1nc2[nH]cc(CCc3ccc(C(=O)N[C@@H](CCC(=O)O)C(=O)O)cc3)c2c(=O)[nH]1 [Pemetrexed] (partner 0.2 µM)
Method in brief: as §1

[2] = compound: O=C(CCCCCCNC(=O)c1cnc(N(c2ccccc2)c2ccccc2)nc1)NO [Ricolinostat] + CC(=O)c1c(C)c2cnc(Nc3ccc(N4CCNCC4)cn3)nc2n(C2CCCC2)c1=O [Palbociclib] (partner 0.5 µM)
Method in brief: as §1

TGX 221 + Pictilisib = compound: CC1=CN2C(=O)C=C(N=C2C(=C1)C(C)NC3=CC=CC=C3)N4CCOCC4 [TGX 221] + CS(=O)(=O)N1CCN(Cc2cc3nc(-c4cccc5[nH]ncc45)nc(N4CCOCC4)c3s2)CC1 [Pictilisib] (partner 1 µM)
Method in brief: as §1

Cell Line | relative viability (TGX 221 + Linsitinib; first compound 0.253 µM) | relative viability (TGX 221 + Linsitinib; first compound 0.8 µM) | relative viability (TGX 221 + Linsitinib; first compound 2.53 µM) | relative viability (TGX 221 + Linsitinib; first compound 8 µM) | relative viability ([1]; first compound 0.08 µM) | relative viability ([1]; first compound 0.253 µM) | relative viability ([1]; first compound 0.8 µM) | relative viability ([1]; first compound 2.53 µM) | relative viability ([2]; first compound 0.08 µM) | relative viability ([2]; first compound 0.253 µM) | relative viability ([2]; first compound 0.8 µM) | relative viability ([2]; first compound 2.53 µM) | relative viability (TGX 221 + Pictilisib; first compound 0.253 µM) | relative viability (TGX 221 + Pictilisib; first compound 0.8 µM) | relative viability (TGX 221 + Pictilisib; first compound 2.53 µM) | relative viability (TGX 221 + Pictilisib; first compound 8 µM) | relative viability (TGX 221 + Linsitinib; first compound 0.08 µM) | relative viability (TGX 221 + Pictilisib; first compound 0.08 µM)
201T | 0.957 | 0.995 | 0.909 | 0.824 | 0.339 | 0.314 | 0.334 | 0.311 | 0.362 | 0.356 | 0.36 | 0.369 | 0.715 | 0.689 | 0.63 | 0.621 | – | –
A549 | 0.451 | 0.391 | 0.432 | 0.456 | – | – | – | – | – | – | – | – | 0.496 | 0.46 | 0.494 | 0.396 | 0.491 | 0.485
A-427 | 1.02 | 1.1 | 1.12 | 1.02 | 0.711 | 0.941 | 0.828 | 0.832 | 0.503 | 0.531 | 0.474 | 0.457 | 0.7 | 0.679 | 0.676 | 0.676 | 1.05 | 0.613
ABC-1 | 0.794 | 0.773 | 0.557 | 0.547 | – | – | – | – | 0.585 | 0.631 | 0.8 | 0.612 | 0.491 | 0.94 | 0.766 | 0.704 | 0.964 | 0.677
BEN | 0.839 | 0.878 | 0.823 | 0.774 | 0.589 | 0.88 | 0.667 | 0.518 | 0.461 | 0.474 | 0.499 | 0.451 | 0.519 | 0.521 | 0.503 | 0.456 | 0.869 | 0.552
CAL-12T | 0.72 | 0.758 | 0.513 | 0.626 | 0.884 | 1.15 | 1.28 | 1.37 | 0.443 | 0.464 | 0.413 | 0.43 | 0.415 | 0.376 | – | 0.519 | 0.803 | –
COR-L23 | 0.847 | 0.964 | 0.732 | 0.881 | 0.199 | 0.212 | 0.188 | 0.17 | 0.261 | 0.227 | 0.203 | 0.156 | 0.713 | 0.757 | 0.771 | 0.892 | 0.883 | 0.746
COR-L 105 | 0.828 | 1.02 | 0.537 | 0.554 | 0.901 | 1.08 | 1.2 | 1.24 | 0.401 | 0.396 | 0.387 | 0.476 | 0.412 | 0.424 | 0.469 | 0.421 | 0.986 | 0.458
Calu-6 | 0.913 | 0.935 | 0.855 | 0.84 | – | – | – | – | – | – | – | – | 0.889 | 0.86 | 0.922 | 0.896 | 0.909 | 0.953
ChaGo-K-1 | – | – | – | – | 0.253 | 0.255 | 0.262 | 0.27 | 0.93 | 0.947 | 0.901 | 0.837 | 0.644 | 0.683 | 0.47 | 0.966 | – | 0.548
EBC-1 | 0.726 | 0.822 | 0.687 | 0.702 | – | – | – | – | – | – | – | – | 0.366 | 0.369 | 0.291 | 0.304 | 0.911 | 0.331
EKVX | 0.851 | 0.727 | 0.715 | 0.637 | 0.34 | 0.394 | 0.335 | 0.406 | 0.358 | 0.42 | 0.408 | 0.422 | 0.458 | 0.448 | 0.39 | 0.404 | 0.756 | 0.337
EMC-BAC-2 | 0.72 | 0.737 | 0.743 | 0.692 | 0.44 | 0.414 | 0.38 | 0.308 | 0.525 | 0.496 | 0.47 | 0.405 | 0.523 | 0.535 | 0.471 | 0.535 | 0.814 | 0.535
EPLC-272H | 1.12 | 1.02 | – | 1.24 | 0.448 | 0.365 | 0.334 | 0.297 | – | 0.325 | 0.332 | 0.237 | 0.295 | 0.369 | – | 0.339 | 0.973 | 0.259
H3255 | 0.847 | 0.892 | 0.912 | 0.859 | 0.494 | 0.544 | 0.553 | 0.557 | 0.336 | 0.307 | 0.292 | 0.33 | 0.445 | 0.45 | 0.492 | 0.539 | 0.841 | 0.466
HARA | 0.853 | 0.883 | 0.766 | 0.754 | 0.254 | 0.256 | 0.213 | 0.274 | 0.269 | 0.288 | 0.238 | 0.248 | 0.469 | 0.372 | 0.361 | 0.585 | 1.05 | 0.538
HCC-15 | 0.86 | 0.878 | 0.845 | 0.827 | 0.22 | 0.214 | 0.231 | 0.234 | 0.779 | 0.739 | 0.685 | 0.606 | 0.706 | 0.784 | 0.71 | 0.782 | 0.893 | 0.806
HCC-44 | 0.53 | 0.62 | 0.464 | 0.359 | 0.661 | 0.548 | 0.682 | 0.601 | 0.91 | 0.935 | 1.01 | 0.964 | 0.571 | 0.615 | 0.555 | 0.541 | 0.646 | 0.648
HCC-78 | 0.409 | – | 0.213 | 0.215 | – | 0.84 | 0.902 | 0.88 | – | 0.438 | 0.484 | 0.479 | 0.179 | – | 0.231 | 0.231 | 0.464 | 0.242
HCC-366 | 0.434 | 0.598 | 0.545 | 0.291 | 0.172 | 0.153 | 0.202 | 0.156 | 0.383 | 0.335 | 0.344 | 0.257 | 0.152 | 0.102 | 0.147 | 0.0862 | 0.673 | 0.103
